“Also recorded” adds a separate entry of the source. Read-outs that look alike come from different tables or passages of the source. Values belong to the compound of their own block, whether it stands above or below them.
Tests used:
[1] = test system: human sarcoma cell line U2OS; assay: Cell viability (MTT) assay, U2OS; assay type: cell-based
Protocol: (§1) Human sarcoma cell lines (RD2, RH30, U2OS) were seeded in 96-well plates at a density of 3,000 cells per well. The cells were incubated at 37° C. for a period of 24 hours. Different concentrations of LY-5 (0.1-10 μM), LY-3 (0.1-20 μM), and LLL12 (0.1-10 μM) prepared as a 20 mM stock solution in sterile DMSO were added in triplicate to the plates in the presence of 10% FBS. 3-(4,5-Dimethylthiazolyl)-2, 5-diphenyltetrazoliumbromide (MTT) was added to evaluate cell viability. The absorbance was read at 595 nm. IC50 values were determined using SigmaPlot 9.0 Software (Systat Software, Inc., San Jose, Calif.).
(§2) Alternatively, cells were seeded in 96-well plates in triplicate at a density of 3,000 cells per well and given 24 hours to adhere. Cells were then treated with varying concentrations of the inhibitors in the presence of 10% FBS. The cells were incubated for 72 hours at 37° C. 25 μl of MTT dye (Sigma, #M5655) was added to each sample and incubated for 3.5 hours. After this, 100 μl of N,N-dimethylformamide (Sigma, #D4551) solubilization solution was added to each well. The absorbance at 450 nm was read the following day. Half-Maximal inhibitory concentrations (IC50) were determined using Sigma Plot 9.0 software (Systat Software Inc.).
Table 6 below lists specific compounds as well as experimentally determined STAT3 activity in a cell-based assay. The STAT3 activity was determined using the cell viability assays with human sarcoma cell line U2OS as described above. The compounds in Table 6 were synthesized with methods identical or analogous to those described herein. The compound reference numbers (“Ref. No.”) in Table 6 correspond to the compound numbers used in Table 3.

[2] = test system: OSM induced STAT3 phosphorylation; assay: Western blot, OSM induced STAT3 phosphorylation; assay type: cell-based, human; conditions: MCF-7; 1-2.5 μM; OSM 50 ng/mL
STAT5 = assay: Western blot, STAT5 after OSM stimulation; assay type: cell-based, human; conditions: MCF-7; 1 and 2.5 μM; OSM 50 ng/mL
Protocol: (§3) RH30 cells were treated with DMSO, LY-5 (0.25-1 μM) and LY-3 (0.5-2.5 μM) prepared as a 20 mM stock solution in sterile DMSO at 60% to 80% confluence in the presence of 10% FBS for 24 hours. The sarcoma cell line EW8 was treated with DMSO and LY-5 (0.5-2.5 μM) prepared as a 20 mM stock solution in sterile DMSO at 60% to 80% confluence in the presence of 10% FBS for 24 hours. MCF-7 cells and DAOY cells were treated with DMSO, 25-50 ng/ml of IL-6, LY-5 (0.25-1 μM) or LY-3 (0.5-2.5 μM) prepared as a 20 mM stock solution in sterile DMSO, protein expressions of P-STAT3 (Tyr705) and STAT3 were tested. DAOY cells were treated with DMSO, 50 ng/ml of IFN-γ, LY-5 (1-5 μM) prepared as a 20 mM stock solution in sterile DMSO, protein expressions of P-STAT3 (Tyr705) and STAT3 were tested. MCF-7 cells were treated with DMSO, 50 ng/ml of OSM, LY-5 (1-2.5 μM) or LLL12 (1-2.5 μM) prepared as a 20 mM stock solution in sterile DMSO, protein expressions of P-STAT3 (Tyr705), P-STAT1, P-STAT5, P-ERK (T202/Y204), P-AKT, STAT3 and STAT1 were tested.
MCF-7 breast cancer cells were seeded in 10 cm plates and allowed to adhere overnight. The following day, the cells were serum-starved. The cells were then left untreated or were treated with LY-5 and LLL12 (1 μM and 2.5 μM) prepared as a 20 mM stock solution in sterile DMSO or DMSO. […] The cells were harvested after 30 minutes and analyzed by Western blot.

[3] = test system: phosphorylated STAT3 (Tyr705); assay: Western blot, constitutive STAT3 phosphorylation; assay type: cell-based, human; conditions: RH30
[4] = test system: human sarcoma cell line RD2; assay: Cell viability (MTT) assay, RD2; assay type: cell-based
Protocol: as §1, §2
(§4) Table 7 below lists specific compounds as well as experimentally determined STAT3 activity in a cell-based assay. The STAT3 activity was determined using the cell viability assays with human sarcoma cell lines (RD2, RH30, U2OS) as described above. The compound reference numbers (“Ref. No.”) in Table 7 correspond to the compound numbers used in Table 3.

[5] = test system: human sarcoma cell line RH30; assay: Cell viability (MTT) assay, RH30; assay type: cell-based
Protocol: as §1, §2, §4

[6] = test system: IL-6 induced STAT3 phosphorylation; assay: Western blot, IL-6 induced STAT3 phosphorylation; assay type: cell-based, human; conditions: MCF-7; LY-3 0.5-2.5 μM, LY-5 0.25-1 μM; 5 h; IL-6 25 ng/mL
Protocol: as §3
The cells were harvested and lysed in cold radioimmunoprecipitation assay (RIPA) lysis buffer containing […] and phosphatase inhibitor cocktail, and were subjected to SDS-PAGE. Then they were transferred to PVDF membrane. Membranes were probed with primary antibodies (1:1,000) and horseradish peroxidase (HRP)-conjugated secondary antibody (1:10,000) (Cell Signaling Technology, Beverly, Mass.). Membranes were analyzed using Enhanced Chemiluminescence Plus reagents and scanned with the Storm Scanner (Amersham Pharmacia Biotech, Inc., Piscataway, N.J.).
MCF-7 breast cancer cells were seeded in 10 cm plates and allowed to adhere overnight. The following day, the cells were serum-starved. The cells were then left untreated or were treated with LY-5 (0.25-1 μM) and LY-3 (0.5-2.5 μM) prepared as a 20 mM stock solution in sterile DMSO or DMSO. After 5 hours, the untreated and LY-5 and LY-3 treated cells were stimulated by IL-6 (25 ng/mL). The cells were harvested after 30 minutes and analyzed by Western blot. DAOY medulloblastoma cancer cells were seeded in 10 cm plates and allowed to adhere overnight. The following day, the cells were serum-starved. The cells were then left untreated or were treated with LY-5 (1-5 μM) prepared as a 20 mM stock solution in sterile DMSO or DMSO. After 2 hours, the untreated and LY-5 treated cells were stimulated by IL-6 (25 ng/mL). The cells were harvested after 30 minutes and analyzed by Western blot.

STAT3 = STAT3 (Homo sapiens, UniProt P40763); assay: Microscale thermophoresis binding to STAT3; conditions: labeled STAT3 30 nM; LY17 1.52-50,000 nM
Sequence of STAT3 (P40763 whole entry): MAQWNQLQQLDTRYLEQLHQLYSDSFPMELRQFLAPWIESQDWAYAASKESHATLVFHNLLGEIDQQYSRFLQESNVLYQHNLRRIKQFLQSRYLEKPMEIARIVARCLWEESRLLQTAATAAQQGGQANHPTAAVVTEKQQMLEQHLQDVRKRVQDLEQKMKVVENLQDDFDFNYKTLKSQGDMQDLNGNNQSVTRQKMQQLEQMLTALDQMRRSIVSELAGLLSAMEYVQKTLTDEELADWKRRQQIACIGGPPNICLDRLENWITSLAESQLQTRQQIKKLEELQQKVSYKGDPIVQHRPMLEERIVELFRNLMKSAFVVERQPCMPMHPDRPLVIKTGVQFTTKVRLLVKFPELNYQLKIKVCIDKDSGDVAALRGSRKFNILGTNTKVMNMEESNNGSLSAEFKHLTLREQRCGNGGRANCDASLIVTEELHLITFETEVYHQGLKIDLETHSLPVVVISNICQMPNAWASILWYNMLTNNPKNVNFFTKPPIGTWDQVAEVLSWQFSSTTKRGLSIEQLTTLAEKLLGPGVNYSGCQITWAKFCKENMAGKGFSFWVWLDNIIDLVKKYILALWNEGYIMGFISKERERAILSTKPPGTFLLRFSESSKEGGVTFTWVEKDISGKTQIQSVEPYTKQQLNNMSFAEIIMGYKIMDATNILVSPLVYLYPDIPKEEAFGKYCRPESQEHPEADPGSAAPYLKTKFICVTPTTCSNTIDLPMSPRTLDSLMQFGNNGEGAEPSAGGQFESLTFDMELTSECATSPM
Protocol: The method provides the dissociation constant, KD. The microscale thermophoresis experiments were carried out at NanoTemper Technologies, Inc. (Munich, Germany). In these experiments, the concentration of the NanoTemper-labeled STAT3 was kept constant (30 nM), while the concentration of the non-labeled binding partner (LY17) was varied between 1.52 nM-50,000 nM. After a short incubation the samples were loaded into MST standard glass capillaries and the MST-analysis was performed using the Monolith.NT115.

[7] = Homo sapiens, Table 8, read-out: IC50 values vs. cell lines, U2OS
[8] = Homo sapiens, Table 2, cell line not given, read-out: IC50

Compound: 4-(naphthalen-2-ylamino)-5H-naphtho[1,8-cd]isothiazol-5-one 1,1-dioxide [LY-6]
IC50 ([1]; Table 6, read-out: IC50): 2500 nM

Compound: NS(=O)(=O)c1cccc2c1C(=O)c1cccc(O)c1C2=O [LLL12, 5-hydroxy-9,10-dioxo-9,10-dihydroanthracene-1-sulfonamide, reference compound]
OSM induced STAT3 phosphorylation [2]: inhibit
IC50 [1, 7]: 1000 nM
inhibition of STAT5 (STAT5): exhibit inhibition
STAT3 phosphorylation at Y705 and S727 ([3]; 5 μM in DMSO or ethanol, 2 h): decrease in STAT3 phosphorylation at Y705 and S727

Compound: O=C1C(Nc2ccccc2)=CC2=NS(=O)(=O)c3cccc1c32 [LY-2, 4-(Phenylamino)-5H-naphtho[1,8-cd]isothiazol-5-one 1,1-dioxide]
IC50 [1, 8]: 5000 nM

Compound: O=C1C(Nc2ccc([N+](=O)[O-])cc2Cl)=CC2=NS(=O)(=O)c3cccc1c32 [LY-3, 4-((2-chloro-4-nitrophenyl)amino)-5H-naphtho[1,8-cd]isothiazol-5-one 1,1-dioxide]
IC50 ([4]; Table 7, read-out: IC50 RD2): 2560 nM
IC50 ([4]; Table 8, read-out: IC50 values vs. cell lines, RD2): 2560 nM
IC50 ([5]; Table 7, read-out: IC50 RH30): 1140 nM
IC50 ([5]; Table 8, read-out: IC50 values vs. cell lines, RH30): 1140 nM
IC50 [1, 8]: 1400 nM
IC50 ([1]; Homo sapiens, Table 7, read-out: IC50 U2OS): 1390 nM
IC50 [1, 7]: 1390 nM
IL-6 induced STAT3 phosphorylation [6]: inhibit; also recorded: blocked the stimulation
concentration almost completely inhibiting Tyr705 phosphorylation ([3]; 16 h): 1 µM
constitutive STAT3 phosphorylation ([3]; LY-3 0.5-2.5 μM, LY-5 0.25-1 μM, 16 h): decrease in STAT3 phosphorylation; also recorded: reduced in a dose-dependent manner

More lines, now with the values ahead:

IC50 ([1]; Table 2, cell line not given, read-out: IC50): 2500 nM
Compound: 5,8-dioxo-6-(phenylamino)-5,8-dihydronaphthalene-1-sulfonamide [LY-7]

IC50 ([1]; Homo sapiens, Table 6, read-out: IC50): > 5000 nM
Compound: NS(=O)(=O)c1cccc2c1C(=O)C=C(Nc1ccccc1)C2=O [LY-7, 5,8-dioxo-6-(phenylamino)-5,8-dihydronaphthalene-1-sulfonamide]

IC50 [1, 8]: > 5000 nM
Compound: NC(=O)NS(=O)(=O)c1ccc(NC2=CC(=O)c3c(cccc3S(N)(=O)=O)C2=O)cc1 [LY-9]

Kd (STAT3): 2420 nM
Compound: NS(=O)(=O)c1cccc2c1C(=O)C=C(Nc1ccccc1N1CCNCC1)C2=O [LY-17]

Source: patent publication US9783513B2, “STAT3 inhibitors and their anticancer use” (Ohio State Innovation Foundation, priority 2012, dated 2017)
